Results on 1 molecule are retold here after paper PMC9916866 (International Journal of Molecular Sciences, 2023).

The target in one assay is T1, human AT2 receptor (Homo sapiens, UniProt P50052).
T1 construct: expressed in transfected cells; host or cells: HEK293T
T1 sequence (P50052 1-363): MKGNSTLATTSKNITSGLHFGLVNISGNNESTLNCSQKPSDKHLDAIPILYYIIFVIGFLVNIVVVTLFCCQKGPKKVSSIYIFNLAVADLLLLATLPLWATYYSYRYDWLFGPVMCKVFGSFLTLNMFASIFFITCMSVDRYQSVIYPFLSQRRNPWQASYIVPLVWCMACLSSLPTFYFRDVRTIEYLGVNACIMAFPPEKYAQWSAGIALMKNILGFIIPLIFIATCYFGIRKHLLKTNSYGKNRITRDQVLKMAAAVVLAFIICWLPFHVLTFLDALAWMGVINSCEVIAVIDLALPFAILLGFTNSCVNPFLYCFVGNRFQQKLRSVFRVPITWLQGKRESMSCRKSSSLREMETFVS
Nature of the assay: biochemical. The class given is binding.

In assay [1] the target is T2, AT1 receptor (Rattus norvegicus, UniProt P25095). Nature of the assay: cell-based.
T2 sequence (P25095 whole entry, looked up): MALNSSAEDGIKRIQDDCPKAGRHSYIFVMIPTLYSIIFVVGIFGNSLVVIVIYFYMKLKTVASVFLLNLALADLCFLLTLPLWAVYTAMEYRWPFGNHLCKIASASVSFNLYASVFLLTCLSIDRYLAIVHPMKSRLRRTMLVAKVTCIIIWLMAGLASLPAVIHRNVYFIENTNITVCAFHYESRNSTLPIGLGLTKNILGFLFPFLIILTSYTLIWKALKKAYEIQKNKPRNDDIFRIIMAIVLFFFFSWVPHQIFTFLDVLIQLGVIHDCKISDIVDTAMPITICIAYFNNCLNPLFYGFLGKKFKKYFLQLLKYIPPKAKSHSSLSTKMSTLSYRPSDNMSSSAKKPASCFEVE
Assay [2] deals with T3, AT1 receptor (Homo sapiens, UniProt P30556).
T3 sequence (P30556 1-359): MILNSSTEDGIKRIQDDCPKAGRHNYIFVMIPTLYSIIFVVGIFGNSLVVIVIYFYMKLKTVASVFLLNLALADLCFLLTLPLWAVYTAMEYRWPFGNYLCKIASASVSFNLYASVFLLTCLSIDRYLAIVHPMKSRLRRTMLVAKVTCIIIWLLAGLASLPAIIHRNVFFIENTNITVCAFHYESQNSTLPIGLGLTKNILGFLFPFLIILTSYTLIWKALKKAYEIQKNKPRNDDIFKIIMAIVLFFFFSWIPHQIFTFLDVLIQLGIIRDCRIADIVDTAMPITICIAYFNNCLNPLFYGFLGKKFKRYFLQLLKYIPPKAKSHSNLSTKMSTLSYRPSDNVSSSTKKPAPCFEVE
The assay is described as follows: cell-based.

In assay [3] the target is T3, AT1 receptor. The assay is described as follows: biochemical. The class given is binding. More on the design: expressed in transfected cells; host or cells: HEK293T.
The target in assay [4] is T2, AT1 receptor. The assay is described as follows: cell-based. The following applies: read-out: inhibition of AngII-induced ERK1/2 phosphorylation (western blot).
For assay [5], the target named is T2, AT1 receptor. The assay is described as follows: biochemical. Format: binding. The settings on record: read-out: inhibition of the specific labelling by Cy5-AngII, AT1.
In assay [6] the target is T3, AT1 receptor. Nature of the assay: cell-based. Format: cell-based. More on the design: expressed in transfected cells; host or cells: HEK293T.

Read-outs that look alike come from different tables or passages of the source. Positions of bridges follow the written chain, without caps; N, C: chain ends. Residues, ends and D or L forms follow the SMILES beside them.

Turning to `CC(C)[C@@H]1NC(=O)[C@H](Cc2c[nH]c3ccccc23)NC(=O)[C@H](Cc2ccccc2)NC(=O)[C@H](Cc2c[nH]cn2)NC(=O)[C@@H](N)CSSC[C@@H](C(=O)N2CCC[C@H]2C(=O)O)NC1=O` [A-CTX-cMila] (H-CHFWVCP-OH; disulfide 1-6), the Ki on human AT2 receptor is 27.5 ± 2.1 µM; at AT1 receptor [3] it was 0.32 ± 0.13 µM. Besides, the values for the IC50 against AT1 receptor [1], at AT1 receptor [2] and against AT1 receptor [6] were 23.7 ± 4.6 µM, 15.6 ± 3 µM and 28.5 ± 12 µM, respectively. Also, the Kb on AT1 receptor [2] (KB, β-arrestin 2 recruitment) was 4.1 ± 3.1 µM; at AT1 receptor [2] (pA2, β-arrestin 2 recruitment), 2 µM. The inhibition at 20 µM at AT1 receptor [4] worked out at 89%. The inhibition at 100 µM at AT1 receptor [5] was found to be 74%.

One may read the Ki as a measure of affinity in units of concentration, obtained from inhibition or displacement. Low readings indicate a stronger hold on the target, high ones a looser hold on the target. The IC50 is the concentration that inhibits the measured activity by half. Read a high IC50 as lower potency.
